# Measurements reported in paper PMC10460844, “Real‐Time Monitoring of Multitarget Antimicrobial Mechanisms of Peptoids Using Label‐Free Imaging with Optical Diffraction Tomography” (Advanced Science, 2023).
# Where two headings read alike, the source gives them in different places. Square brackets hold non-standard residues; d marks the D form. Peptide text beside a SMILES is read from it. Gly(N(CH2)2(3-indolyl)) = O=C(O)CNCCc1c[nH]c2ccccc12; Nspe = C[C@H](NCC(=O)O)c1ccccc1; Nlys = NCCCCNCC(=O)O
# How the values were obtained:
# [1] = test system: S. aureus ATCC 25923; assay type: cell-based, Staphylococcus aureus
# Summary of the method: (§1)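 In cation-adjusted Mueller Hinton broth 2 supplemented with 0.02% BSA and 0.001% acetic acid, about 2–5 × 10^5 CFU mL^−1 bacteria met peptoid at 25 µM and five lower two-fold dilutions. The MIC is the lowest concentration without turbidity, from triplicate determinations.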
# [2] = Analytical reversed-phase HPLC elution (hydrophobicity); assay type: physicochemical; conditions: Table 1; analytical RP-HPLC, SunFire C18 […] 250 mm, water/ACN + 0.1% TFA, 5% B 2 min then linear to 100% B over 30 min, 1 mL/min, UV 220 nm; used as measure of hydrophobicity
# Summary of the method: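 Retention time (tR) reflects hydrophobicity, with detection at 220 nm. Elution used a 5–100% acetonitrile linear gradient over 30 min after a 2 min hold at 5%, then 5 min at 100%, with both phases containing 0.1% TFA. Column was an analytical C18 (4.6 × 250 mm, 5 μm) run at 1 mL/min.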
# [3] = test system: E. coli ATCC 25922; assay type: cell-based, Escherichia coli
# Summary of the method: as §1
# [4] = test system: S. typhimurium SL 1344; assay type: cell-based
# [5] = test system: P. aeruginosa KCTC 1637; assay type: cell-based
# [6] = test system: rat erythrocytes; assay: Hemolysis assay; assay type: cell-based
# Summary of the method: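 Washed Sprague-Dawley rat erythrocytes (10% suspension in PBS pH 7.4) mixed with peptoids (0–100 µM), 60 min at 37 °C; supernatant A540 expressed as % of 1% Triton X-100 lysis. HC10/HC50 are concentrations giving 10%/50% hemolysis; Hmax is hemolysis at 100 µM.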
# [7] = test system: E. coli ATCC 25922; assay: NPN uptake assay (outer membrane); assay type: cell-based; conditions: E. coli ATCC 25922, 5 mM HEPES pH 7.2, 10 µM NPN, fluorescence
# Protocol: 14. In vitro biological assays […]
# The ability of peptoids to increase the permeability of the outer membrane of Gram-negative bacteria was determined by measuring the incorporation of the NPN fluorescent dye into the outer membrane of E. coli ATCC 25922. Bacterial cells were suspended to a final concentration of OD600 = 0.05 in 5 mM HEPES buffer, pH 7.2, containing 5 mM KCN. Then […]
# 200 μL NPN dye was added to wells of a 96 well plate to produce a final concentration of 10 μM, and the background fluorescence was recorded (λex = 350 nm, λem = 420 nm). Aliquots of peptoids were added to the well, and fluorescence was recorded as a function of time until there was no further increase in fluorescence. Increases of the permeability of the outer membrane after the addition of peptoids was reflected by increased fluorescence values as a result of NPN incorporation into the membrane. […]
# [8] = test system: E. faecalis KCTC 3511; assay type: cell-based
# [9] = test system: E. faecium KCTC 13225; assay type: cell-based
# [10] = Table S2, broth dilution, MHB2, 37 °C 24 h, max 25 µM, mean of triplicate
# [11] = Table S3, counter-ion exchange series, mean of triplicate
# [12] = Table S3, counter-ion exchange series (TFA, HCl, AcOH salts), mean of triplicate
# [13] = gram-positive pathogenic strain, mean of triplicates
SMILES,"MIC S. aureus ATCC25923 [1, 10] [µM]","MIC S. aureus ATCC25923 [1, 11] [µM]",HPLC elution (%ACN) [2] [%ACN],"MIC E. coli ATCC25922 [3, 10] [µM]","MIC E. coli ATCC25922 [3, 12] [µM]",outer membrane disruption (NPN uptake) [7],MIC S. typhimurium SL 1344 ([4]; SL 1344) [µM],MIC P. aeruginosa KCTC 1637 ([5]; KCTC 1637) [µM],H max (100 µM) [6] [%],HC10 ([6]; pH 7.4) [µM],HC50 ([6]; pH 7.4) [µM],HC10 ([6]; red cells of rat) [µM],MIC E. faecalis KCTC 3511 ([8]; KCTC 3511) [µM],MIC E. faecium KCTC 13225 ([9]; KCTC 13225) [µM],also measured
"C[C@@H](c1ccccc1)N(CC(N)=O)C(=O)CN(C(=O)CN(CCCCN)C(=O)CN(C(=O)CN(C(=O)CN(CCCCN)C(=O)CN(C(=O)CN(C(=O)CN(CCCCN)C(=O)CN(C(=O)CN(C(=O)CNCCCCN)[C@@H](C)c1ccccc1)[C@@H](C)c1ccccc1)[C@@H](C)c1ccccc1)[C@@H](C)c1ccccc1)[C@@H](C)c1ccccc1)[C@@H](C)c1ccccc1)[C@@H](C)c1ccccc1 [peptoid 1, reference compound] (H-[Nlys][Nspe][Nspe][Nlys][Nspe][Nspe][Nlys][Nspe][Nspe][Nlys][Nspe][Nspe]-NH2)",1.6,1.6,54.5,6.3,6.3,strongly disrupted,–,–,–,–,–,–,–,–,"MIC S. typhimurium SL 1344 ([4]; gram-negative pathogenic strain, mean of triplicates): 25 µM; MIC P. aeruginosa KCTC 1637 ([5]; gram-negative pathogenic strain, maintained in refined LB media, mean of triplicates): 6.3 µM; HC10 ([6]; Table S2, 10% hemolysis in rat erythrocytes, PBS pH 7.4, 37 °C 60 min, mean of triplicate): 8.3 µM; HC50 ([6]; Table S2, 50% hemolysis in rat erythrocytes, PBS pH 7.4, 37 °C 60 min, mean of triplicate): 22.9 µM; HC10 ([6]; Table S3, counter-ion exchange series, 10% hemolysis in rat erythrocytes, mean of triplicate): 15.9 µM; HC50 ([6]; Table S3, counter-ion exchange series, 50% hemolysis in rat erythrocytes, mean of triplicate): 49.0 µM; Hmax (100 µM) ([6]; Table S3, counter-ion exchange series, hemolysis at 100 µM): 72.1±2.1%; H max (100 µM) ([6]; percentage of hemolysis at the highest concentration tested (100 µM), rat erythrocytes): 112.3 ± 0.7%; MIC E. faecalis KCTC 3511 [8, 13]: 0.8 µM; MIC E. faecium KCTC 13225 [9, 13]: <0.8 µM"
C[C@@H](c1ccccc1)N(CC(=O)N(CCCCN)CC(=O)N(CC(=O)N(CC(=O)N(CCCCN)CC(=O)N(CC(=O)N(CC(=O)N(CCCCN)CC(=O)N(CCc1c[nH]c2ccccc12)CC(=O)N(CCc1c[nH]c2ccccc12)CC(N)=O)[C@@H](C)c1ccccc1)[C@@H](C)c1ccccc1)[C@@H](C)c1ccccc1)[C@@H](C)c1ccccc1)C(=O)CN(C(=O)CNCCCCN)[C@@H](C)c1ccccc1 [peptoid 11] (H-[Nlys][Nspe][Nspe][Nlys][Nspe][Nspe][Nlys][Nspe][Nspe][Nlys][Gly(N(CH2)2(3-indolyl))][Gly(N(CH2)2(3-indolyl))]-NH2),1.6,1.6,54.0,6.3,–,strongly disrupted,25,3.1,103.4 ± 3.2,8.3,22.2,6.9,<0.8,<0.8,MIC E. coli ATCC25922 ([3]; ATCC 25922): 3.1 µM; Hmax (100 µM) [6]: 111.9±2.7%; HC50 ([6]; red cells of rat): 27.5 µM
C[C@@H](c1ccccc1)N(CC(=O)N(CCCCN)CC(=O)N(CCc1c[nH]c2ccccc12)CC(=O)N(CCc1c[nH]c2ccccc12)CC(N)=O)C(=O)CN(CCCCN)C(=O)CN(CCCCN)C(=O)CN(C(=O)CN(C(=O)CN(CCCCN)C(=O)CN(C(=O)CN(C(=O)CNCCCCN)[C@@H](C)c1ccccc1)[C@@H](C)c1ccccc1)[C@@H](C)c1ccccc1)[C@@H](C)c1ccccc1 [peptoid 29] (H-[Nlys][Nspe][Nspe][Nlys][Nspe][Nspe][Nlys][Nlys][Nspe][Nlys][Gly(N(CH2)2(3-indolyl))][Gly(N(CH2)2(3-indolyl))]-NH2),6.3,–,48.6,6.3,6.3,somewhat lower,6.3,3.1,9.8 ± 1.8,> 100,> 100,88.6,3.1,1.6,"MIC S. aureus ATCC25923 ([1]; ATCC 25923): 12.5 µM; MIC E. coli ATCC25922 ([3]; broth dilution, MHB2 with 0.001% acetic acid and 0.02% BSA, 2–5 × 10^5 CFU/mL, 37 °C 24 h, max 25 µM, mean of triplicates): 6.3 µM; HC50 [6]: > 100 µM"
